Test [1] deals with T1, TAOK3/JIK (Homo sapiens, UniProt Q9H2K8).
T1 sequence (Q9H2K8 1-898): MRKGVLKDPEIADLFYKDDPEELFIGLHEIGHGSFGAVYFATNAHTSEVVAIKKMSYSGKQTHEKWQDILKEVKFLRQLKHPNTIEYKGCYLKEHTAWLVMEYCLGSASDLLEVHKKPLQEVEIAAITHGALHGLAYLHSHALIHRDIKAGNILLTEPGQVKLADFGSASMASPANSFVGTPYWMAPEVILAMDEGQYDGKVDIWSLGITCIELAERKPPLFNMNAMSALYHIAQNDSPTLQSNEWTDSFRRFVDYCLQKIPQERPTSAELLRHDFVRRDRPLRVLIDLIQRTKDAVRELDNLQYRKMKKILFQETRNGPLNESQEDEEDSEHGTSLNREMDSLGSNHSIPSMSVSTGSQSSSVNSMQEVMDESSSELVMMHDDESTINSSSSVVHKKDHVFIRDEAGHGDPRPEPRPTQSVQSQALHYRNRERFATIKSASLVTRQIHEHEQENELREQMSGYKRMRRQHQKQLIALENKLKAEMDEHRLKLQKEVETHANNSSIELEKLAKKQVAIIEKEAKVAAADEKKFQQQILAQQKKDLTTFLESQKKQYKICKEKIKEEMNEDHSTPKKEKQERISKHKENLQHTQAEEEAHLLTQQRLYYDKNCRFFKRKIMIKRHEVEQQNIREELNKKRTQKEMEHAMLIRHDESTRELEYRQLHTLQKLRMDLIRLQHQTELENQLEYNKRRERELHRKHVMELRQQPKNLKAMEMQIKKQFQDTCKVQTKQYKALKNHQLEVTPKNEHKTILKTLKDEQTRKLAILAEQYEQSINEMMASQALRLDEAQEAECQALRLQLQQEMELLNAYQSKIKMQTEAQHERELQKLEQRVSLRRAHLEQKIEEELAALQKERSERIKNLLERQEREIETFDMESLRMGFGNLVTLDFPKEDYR
The note with it: 1 μM; Run 1, Run 2.

The target of test [2] is T2, PBK/TOPK (Homo sapiens, UniProt Q96KB5).
T2 sequence (Q96KB5 1-322): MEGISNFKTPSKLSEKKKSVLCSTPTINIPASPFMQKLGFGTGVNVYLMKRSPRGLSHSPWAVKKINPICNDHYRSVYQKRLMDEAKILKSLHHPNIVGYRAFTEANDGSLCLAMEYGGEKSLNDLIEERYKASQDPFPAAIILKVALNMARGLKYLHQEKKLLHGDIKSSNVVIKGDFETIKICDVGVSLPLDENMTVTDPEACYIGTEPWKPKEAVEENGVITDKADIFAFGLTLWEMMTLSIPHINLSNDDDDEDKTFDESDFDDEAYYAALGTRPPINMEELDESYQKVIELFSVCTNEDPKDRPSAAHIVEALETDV
The test can be described thus: biochemical. The note with it: read-out: % enzyme activity, 1 μM; Run 1, Run 2.

Test [3] addresses AKT3 (Homo sapiens, UniProt Q9Y243). The experiment in a line: biochemical. The note with it: read-out: % enzyme activity, 1 μM; Run 1, Run 2.
The target in test [4] is ERBB4/HER4 (Homo sapiens, UniProt Q15303). The test can be described thus: biochemical. The note with it: read-out: % enzyme activity, 1 μM; Run 1, Run 2.
Chain of ERBB4/HER4 (Q15303 26-1308): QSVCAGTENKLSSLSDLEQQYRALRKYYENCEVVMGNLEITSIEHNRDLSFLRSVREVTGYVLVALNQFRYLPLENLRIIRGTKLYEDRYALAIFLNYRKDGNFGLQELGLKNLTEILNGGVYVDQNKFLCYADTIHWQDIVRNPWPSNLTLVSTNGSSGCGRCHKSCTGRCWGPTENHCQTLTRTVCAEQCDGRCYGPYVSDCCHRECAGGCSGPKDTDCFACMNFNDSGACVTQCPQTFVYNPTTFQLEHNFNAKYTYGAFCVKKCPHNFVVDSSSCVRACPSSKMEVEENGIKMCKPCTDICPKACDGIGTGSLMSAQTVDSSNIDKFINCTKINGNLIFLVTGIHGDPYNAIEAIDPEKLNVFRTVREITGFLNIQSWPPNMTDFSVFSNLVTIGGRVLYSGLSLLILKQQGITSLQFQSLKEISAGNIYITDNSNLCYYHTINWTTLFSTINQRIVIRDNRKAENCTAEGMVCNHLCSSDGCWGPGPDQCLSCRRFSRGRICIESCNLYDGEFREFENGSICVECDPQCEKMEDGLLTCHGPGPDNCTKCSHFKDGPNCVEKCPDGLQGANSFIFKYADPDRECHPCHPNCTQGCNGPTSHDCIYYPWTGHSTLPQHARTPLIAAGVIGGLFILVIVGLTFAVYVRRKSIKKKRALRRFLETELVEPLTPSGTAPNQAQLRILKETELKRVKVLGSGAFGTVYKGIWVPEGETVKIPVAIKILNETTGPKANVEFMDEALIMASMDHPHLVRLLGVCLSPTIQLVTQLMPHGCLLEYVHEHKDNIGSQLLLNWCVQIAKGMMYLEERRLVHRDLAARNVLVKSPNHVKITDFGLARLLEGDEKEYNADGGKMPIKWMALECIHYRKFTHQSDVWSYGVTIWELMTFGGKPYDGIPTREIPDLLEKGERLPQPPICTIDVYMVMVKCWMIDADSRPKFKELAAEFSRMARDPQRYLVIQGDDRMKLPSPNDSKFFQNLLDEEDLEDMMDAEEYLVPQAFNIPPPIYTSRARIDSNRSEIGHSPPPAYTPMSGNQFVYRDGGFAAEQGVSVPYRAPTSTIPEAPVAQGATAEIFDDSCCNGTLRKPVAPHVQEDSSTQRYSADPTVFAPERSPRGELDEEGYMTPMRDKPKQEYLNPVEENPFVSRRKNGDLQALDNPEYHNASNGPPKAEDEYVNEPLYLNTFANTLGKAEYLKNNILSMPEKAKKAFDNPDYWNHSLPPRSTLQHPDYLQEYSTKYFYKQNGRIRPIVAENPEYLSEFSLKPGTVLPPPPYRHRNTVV
Test [5] concerns the target T3, TAOK1 (Homo sapiens, UniProt Q7L7X3).
T3 construct: purchased Reaction Biology Corporation
T3 sequence (Q7L7X3 1-1001): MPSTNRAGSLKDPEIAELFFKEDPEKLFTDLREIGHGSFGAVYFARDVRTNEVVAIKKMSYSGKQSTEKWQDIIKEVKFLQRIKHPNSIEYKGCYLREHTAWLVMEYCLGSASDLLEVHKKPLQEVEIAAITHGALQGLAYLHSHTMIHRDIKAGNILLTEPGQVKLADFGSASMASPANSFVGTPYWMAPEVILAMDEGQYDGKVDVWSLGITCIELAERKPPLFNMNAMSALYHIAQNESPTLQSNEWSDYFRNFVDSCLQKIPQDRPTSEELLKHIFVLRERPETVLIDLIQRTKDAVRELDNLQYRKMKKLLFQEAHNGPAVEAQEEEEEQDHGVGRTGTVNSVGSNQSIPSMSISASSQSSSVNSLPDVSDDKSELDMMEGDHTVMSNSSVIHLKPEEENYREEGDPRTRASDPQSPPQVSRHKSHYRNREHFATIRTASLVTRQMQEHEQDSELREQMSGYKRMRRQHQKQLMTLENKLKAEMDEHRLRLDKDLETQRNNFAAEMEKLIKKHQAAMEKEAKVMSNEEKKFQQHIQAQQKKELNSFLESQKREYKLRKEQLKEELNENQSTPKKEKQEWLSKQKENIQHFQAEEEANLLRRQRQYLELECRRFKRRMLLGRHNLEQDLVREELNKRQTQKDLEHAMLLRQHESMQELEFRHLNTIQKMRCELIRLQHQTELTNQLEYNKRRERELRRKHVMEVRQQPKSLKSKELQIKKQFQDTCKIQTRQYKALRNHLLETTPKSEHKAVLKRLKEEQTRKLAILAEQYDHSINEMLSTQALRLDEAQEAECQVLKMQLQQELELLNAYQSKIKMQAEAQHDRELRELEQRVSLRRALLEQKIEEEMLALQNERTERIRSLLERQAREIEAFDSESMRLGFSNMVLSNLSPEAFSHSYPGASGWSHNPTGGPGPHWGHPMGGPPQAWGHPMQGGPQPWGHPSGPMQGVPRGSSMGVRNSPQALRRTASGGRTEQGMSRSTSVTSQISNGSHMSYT
The test can be described thus: 375-member kinase panel. Format: biochemical. The note with it: Run 1, Run 2; for % enzyme activity: 1 μM; for remaining activity at 1 µM: read-out: % enzyme activity, 1 μM.

The target in test [6] is ERBB2/HER2 (Homo sapiens, UniProt P04626). The test can be described thus: biochemical. The note with it: read-out: % enzyme activity, 1 μM; Run 1, Run 2.
Chain of ERBB2/HER2 (P04626 23-1255): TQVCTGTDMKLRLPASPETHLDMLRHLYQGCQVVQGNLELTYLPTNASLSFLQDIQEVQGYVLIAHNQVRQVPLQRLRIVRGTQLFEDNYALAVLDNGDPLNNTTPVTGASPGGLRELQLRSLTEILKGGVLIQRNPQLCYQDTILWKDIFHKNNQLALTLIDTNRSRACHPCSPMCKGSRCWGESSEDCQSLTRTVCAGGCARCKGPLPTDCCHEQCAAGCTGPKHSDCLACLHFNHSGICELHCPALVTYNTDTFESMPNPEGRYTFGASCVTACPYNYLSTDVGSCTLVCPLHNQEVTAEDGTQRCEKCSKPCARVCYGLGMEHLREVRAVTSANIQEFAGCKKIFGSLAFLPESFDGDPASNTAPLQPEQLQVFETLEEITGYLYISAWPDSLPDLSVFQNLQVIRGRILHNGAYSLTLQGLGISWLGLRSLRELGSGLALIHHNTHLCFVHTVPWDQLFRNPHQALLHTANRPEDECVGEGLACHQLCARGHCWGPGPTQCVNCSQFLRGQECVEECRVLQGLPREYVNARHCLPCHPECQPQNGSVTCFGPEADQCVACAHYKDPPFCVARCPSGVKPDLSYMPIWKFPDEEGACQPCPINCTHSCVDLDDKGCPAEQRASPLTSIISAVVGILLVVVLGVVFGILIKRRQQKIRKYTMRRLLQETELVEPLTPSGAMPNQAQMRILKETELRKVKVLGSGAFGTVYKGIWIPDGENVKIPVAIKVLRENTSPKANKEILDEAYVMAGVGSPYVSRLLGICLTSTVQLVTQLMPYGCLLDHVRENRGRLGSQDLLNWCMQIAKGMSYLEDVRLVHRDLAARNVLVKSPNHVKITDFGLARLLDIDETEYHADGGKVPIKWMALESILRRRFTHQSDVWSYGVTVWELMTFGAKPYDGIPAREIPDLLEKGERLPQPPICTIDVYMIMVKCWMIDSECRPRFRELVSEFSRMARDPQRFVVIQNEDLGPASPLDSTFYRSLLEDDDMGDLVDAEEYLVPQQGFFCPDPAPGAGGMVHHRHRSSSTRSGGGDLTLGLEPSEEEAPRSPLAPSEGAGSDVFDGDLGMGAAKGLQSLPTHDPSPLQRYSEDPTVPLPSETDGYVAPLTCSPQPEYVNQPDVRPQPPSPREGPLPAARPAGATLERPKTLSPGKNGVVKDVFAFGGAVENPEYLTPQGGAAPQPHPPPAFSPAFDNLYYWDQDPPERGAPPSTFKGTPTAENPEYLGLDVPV
Test [7] has as its target T4, P38g (Homo sapiens, UniProt P53778).
T4 sequence (P53778 1-367): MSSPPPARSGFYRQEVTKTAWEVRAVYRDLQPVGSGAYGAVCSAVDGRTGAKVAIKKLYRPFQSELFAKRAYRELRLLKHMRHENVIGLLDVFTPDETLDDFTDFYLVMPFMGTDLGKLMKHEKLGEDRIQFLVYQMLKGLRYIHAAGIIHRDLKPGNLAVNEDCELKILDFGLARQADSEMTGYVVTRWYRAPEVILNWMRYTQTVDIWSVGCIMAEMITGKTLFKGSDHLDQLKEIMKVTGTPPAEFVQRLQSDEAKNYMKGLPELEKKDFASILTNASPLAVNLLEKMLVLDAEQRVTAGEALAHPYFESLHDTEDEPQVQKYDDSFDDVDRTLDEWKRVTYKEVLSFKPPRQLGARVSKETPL
The experiment in a line: biochemical. The note with it: read-out: % enzyme activity, 1 μM; Run 1, Run 2.

Chain of AKT3 (Q9Y243 whole entry): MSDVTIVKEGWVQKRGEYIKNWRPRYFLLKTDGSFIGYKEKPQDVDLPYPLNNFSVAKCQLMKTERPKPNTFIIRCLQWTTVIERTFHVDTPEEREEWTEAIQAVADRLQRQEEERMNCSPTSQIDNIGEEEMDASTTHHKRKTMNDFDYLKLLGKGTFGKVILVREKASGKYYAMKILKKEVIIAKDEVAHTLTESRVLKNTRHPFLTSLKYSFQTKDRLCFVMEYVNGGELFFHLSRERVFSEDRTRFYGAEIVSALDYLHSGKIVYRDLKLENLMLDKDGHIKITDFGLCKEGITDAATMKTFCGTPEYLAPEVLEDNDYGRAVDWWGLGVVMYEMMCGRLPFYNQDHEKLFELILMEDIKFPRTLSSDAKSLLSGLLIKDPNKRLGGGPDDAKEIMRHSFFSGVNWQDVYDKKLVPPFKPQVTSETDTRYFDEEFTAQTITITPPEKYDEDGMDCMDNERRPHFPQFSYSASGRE

Turning to `COc1cc(-c2cncc(-c3ccc(N4CCN(C)CC4)cc3)c2C)cc(F)c1C(N)=O` [Compound 26a, 2-Fluoro-6-methoxy-4-(4-methyl-5-(4-(4-methylpiperazin-1-yl)phenyl)pyridin-3-yl)benzamide], the entries for the “% enzyme activity” value in test [1] and in test [5] were 69.26% and 60.19%, respectively. Further, the remaining activity at 1 µM was found to be 91.8% in test [2]; 95% in test [3]; 99.5% in test [4]; 60.3% in test [5]; 89.7% in test [6]; 110% in test [7].
On to `COc1cc(-c2cncc(-c3ccc(N4C[C@@H](C)N(C)[C@@H](C)C4)cc3)c2C)cc(F)c1C(N)=O` [Compound 26c, 2-Fluoro-6-methoxy-4-(4-methyl-5-(4-((3R,5S)-3,4,5-trimethylpiperazin-1-yl)phenyl)pyridin-3-yl)benzamide], for which the “% enzyme activity” value worked out at 81.51% in test [1] and 60.59% in test [5]. Besides, the remaining activity at 1 µM in test [2] stood at 103%; in test [3], 98.7%; in test [4], 94.9%; in test [5] it was 62.2%; in test [6], 96.8%; in test [7] it was 108%.

The values are drawn from paper PMC8213057, “Targeting ALK2: An Open Science Approach to Developing Therapeutics for the Treatment of Diffuse Intrinsic Pontine Glioma” (Journal of Medicinal Chemistry, 2020).
